In patent US20260008746A1, “CATIONIC LIPID COMPOUND WITH HIGH EFFICIENCY, LOW TOXICITY AND STABLE EXPRESSION, AND COMPOSITION COMPRISNG SAME” (HANGZHOU TIANLONG PHARMACEUTICAL CO., LTD, priority 2023, published 2026):
Values joined by “and” are separate entries in the source; they are usually repeats but may differ in a detail not shown here. Identical values can stand only once.

Columns and labels:
[1] = Determination of particle size and polydispersity index (PDI) of lipid nanoparticles by dynamic light scattering; assay type: physicochemical; details: LNP formulation of named cationic lipid/DSPC/cholesterol/DMG-PEG2000 49:10:39.5:1.5; for Particle size (nm): 90° scattering angle, 25° C
How it was run: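 LNPs of cationic lipid/DSPC/cholesterol/DMG-PEG2000 (49:10:39.5:1.5 mol%), lipid:mRNA 15:1 w/w, carrying eGFP or Fluc mRNA, made by ethanol injection into citrate buffer pH 4–5, sonicated, PBS-exchanged by ultrafiltration. Size and PDI by dynamic light scattering after dilution in RNase-free water, 90° angle, 25 °C, triplicate.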

293T cells [2] = experiment: Fluorescent detection of Fluc-mRNA (cell transfection efficiency of LNP formulations); assay type: cell-based; details: for Relative light unit (RLU): LNP formulation containing 0.3 μg Fluc-mRNA, 96-well plate, 24 hours; for Multiples (YK-107): RLU of YK-107 / RLU of named substance; for fluorescence absorption value, times that of HHMA: RLU of named substance / RLU of HHMA; for fluorescence absorption value, times that of Lipofectamine 3000: RLU of named substance / RLU of Lipofectamine 3000; for Ratio relative to SM-102: RLU of named substance / RLU of SM-102; for Fluc-mRNA expression signal intensity, times that of compound 21: RLU of named substance / RLU of compound 21; for fluorescence absorption value, times that of compound 23: RLU of named substance / RLU of compound 23; for difference from SM-102 in Fluc-mRNA fluorescence (GraphPad Prism analysis): statistical comparison with SM-102
How it was run: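 293T cells seeded at 10,000 per well, cultured overnight, then given LNP carrying 0.3 μg Fluc-mRNA (cationic:neutral:structured:PEG-lipid 49:10:39.5:1.5 molar). Incubated 24 h. Luciferase signal read with kit reagent on an IVIS imaging system.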

293T cells [3] = experiment: Cell survival rate determination (CCK-8); assay type: cell-based; details: for Cell survival rate (%): LNP formulation containing 1.5 μg Fluc-mRNA, 24 hours, CCK-8, absorbance at 450 nm; for cell survival rate lower than that of YK-101: cell survival rate of YK-101 minus that of named substance; for cell survival rate lower than that of YK-107: cell survival rate of YK-107 minus that of named substance; for cell survival rate lower than that of YK-108: cell survival rate of YK-108 minus that of named substance
How it was run: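 293T cells were seeded overnight at 10,000 cells/well in 96-well plates, then exposed for 24 h to LNP containing 1.5 μg Fluc-mRNA (cationic:neutral:structural:polymer-conjugated lipid, 49:10:39.5:1.5 molar) or to Lipofectamine 3000. Viability was read by CCK-8, 1 h incubation, absorbance 450 nm.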

BALB/C mice = experiment: In vivo imaging of Fluc-mRNA expression in mice delivered by LNP formulations; details: for average radiation intensity, 6 h / average radiation intensity, 24 h / average radiation intensity, 48 h / average radiation intensity, 7 d: LNP containing 10 pg Fluc-mRNA, intramuscular, female BALB/C mice
How it was run: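 Female BALB/C mice (4-6 weeks, 17-19 g) received LNP carrying […] Fluc-mRNA intramuscularly. Substrate was given intraperitoneally at 6 h, 24 h, 48 h and 7 d, and average radiance was imaged by IVIS 5 min later.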

[4] = highest multiple, time point not stated

| PDI(%) [1] [%] | Particle size (nm) [1] [nm] | Compound | Relative light unit (RLU) (293T cells [2]) | Multiples (YK-107) (293T cells [2]) | fluorescence absorption value, times that of HHMA (293T cells [2]) [times] | fluorescence absorption value, times that of Lipofectamine 3000 (293T cells [2]) [times] | Ratio relative to SM-102 (293T cells [2]) | Fluc-mRNA expression signal intensity, times that of compound 21 (293T cells [2]) [times] | fluorescence absorption value, times that of compound 23 (293T cells [2]) [times] | difference from SM-102 in Fluc-mRNA fluorescence (GraphPad Prism analysis) (293T cells [2]) | Cell survival rate (%) (293T cells [3]) | cell survival rate lower than that of YK-101 (293T cells [3]) | cell survival rate lower than that of YK-107 (293T cells [3]) | cell survival rate lower than that of YK-108 (293T cells [3]) | average radiation intensity of YK-101, times that of named substance (BALB/C mice; 6 h) [times] | average radiation intensity of YK-107, times that of named substance (BALB/C mice; 6 h) [times] | average radiation intensity of YK-108, times that of named substance (BALB/C mice; 6 h) [times] | average radiation intensity of YK-101, times that of named substance (BALB/C mice; 24 h) [times] | average radiation intensity of YK-107, times that of named substance (BALB/C mice; 24 h) [times] | average radiation intensity of YK-108, times that of named substance (BALB/C mice; 24 h) [times] | other results |
| --- | --- | --- | --- | --- | --- | --- | --- | --- | --- | --- | --- | --- | --- | --- | --- | --- | --- | --- | --- | --- | --- |
| 15.4 | 246 | CCCCCCCCCCOC(=O)CCCN(CCCCCC(=O)OCCC(CCCCCC)CCCCCC)CCOCCO [YK-123, 3-hexylnonyl 6-(4-(decyloxy)-4-oxobutyl)(2-(2-hydroxyethoxy-ethyl)amino)hexanoate] | 807703 | 27.68 | 0.39 | 0.75 | 0.53 | 0.58 | 0.63 | no significant difference | 76.68 | 13.44% | 13.77% | 13.18% | 4.7 | 5.0 | 6.4 | 18.0 | 22.2 | 23.9 | cell transfection efficiency, times that of YK-124 (293T cells [2]): 10 times; average radiation intensity of YK-101, times that of named substance (BALB/C mice; 48 h): 19.9 times; average radiation intensity of YK-107, times that of named substance (BALB/C mice; 48 h): 24.2 times; average radiation intensity of YK-108, times that of named substance (BALB/C mice; 48 h): 24.7 times; average radiation intensity of YK-101, times that of named substance (BALB/C mice; 7 d): 8.6 times; average radiation intensity of YK-107, times that of named substance (BALB/C mice; 7 d): 9.4 times; average radiation intensity of YK-108, times that of named substance (BALB/C mice; 7 d): 10.0 times; average radiation intensity, 6 h (BALB/C mice; 6 h): 317640; average radiation intensity, 24 h (BALB/C mice; 24 h): 58728; average radiation intensity, 48 h (BALB/C mice; 48 h): 9336; average radiation intensity, 7 d (BALB/C mice; 7 d): 1414 |
| 15.1 | 260 | CCCCCCCCCCOC(=O)CCCN(CCCCCC(=O)OCC(CCCCCCCC)CCCCCCCC)CCOC(=O)CCCN(C)C [YK-126] | 219983 | 101.65 | 0.11 | 0.20 | 0.14 | 0.16 | 0.17 | significant difference | 25.03 | 60% and 65.09% | 60% and 65.42% | 60% and 64.83% | 9.6 | 10.3 | 13.0 | 50.4 | 62.2 | 67.1 | cell transfection activity, times that of YK-125 (293T cells [2]): 1.3 times; Multiples (YK-101) (293T cells [2]; RLU of YK-101 / RLU of named substance): 92.44; Multiples (YK-108) (293T cells [2]; RLU of YK-108 / RLU of named substance): 112.10; cell survival rate lower than that of YK-122 (293T cells [3]): 54.12%; cell survival rate lower than that of YK-124 (293T cells [3]): 52.53%; average radiation intensity of YK-101, times that of named substance (BALB/C mice; 48 h): 27.9 times; average radiation intensity of YK-107, times that of named substance (BALB/C mice; 48 h): 34.0 times; average radiation intensity of YK-108, times that of named substance (BALB/C mice; 48 h): 34.6 times; average radiation intensity of YK-101, times that of named substance (BALB/C mice; 7 d): 13.9 times; average radiation intensity of YK-107, times that of named substance (BALB/C mice; 7 d): 15.2 times; average radiation intensity of YK-108, times that of named substance (BALB/C mice; 7 d): 16.2 times; average radiation intensity, 6 h (BALB/C mice; 6 h): 155160; average radiation intensity, 24 h (BALB/C mice; 24 h): 20939; average radiation intensity, 48 h (BALB/C mice; 48 h): 6656; average radiation intensity, 7 d (BALB/C mice; 7 d): 877; expression amount of mRNA in mice of YK-101, times that of named substance (BALB/C mice; [4]): 50 times; expression amount of mRNA in mice of YK-107, times that of named substance (BALB/C mice; [4]): 62 times |
